In US20230000875A1, “MULTIPLE UNIT PELLET SYSTEM TABLET COMPRISING RIBOFLAVIN” (DSM IP ASSETS B.V., priority 2019, published 2023):

Assay: Absorption of the solution of coated or uncoated riboflavin in water (coloration/release)
Assay type: physicochemical
Details: amount containing 10 mg riboflavin dissolved in 1000 ml water for 15 min; measured at 545 nm, spectrophotometer
Procedure: 80 g granulated Riboflavin was successively coated with 9% Na-alginate, 1% Ca-Chloride and 25% shellac using a WFP-mini fluid bed processor (DMR) in Wurster configuration. 89 g coated product with particle size between 250 and 1000 μm was obtained. Coating material was 35% of the particle mass, riboflavin content 50%. 20 mg of coated powder (containing 10 mg of Riboflavin) was dissolved in 1000 ml water for 15 min. Absorption of the solution was measured at 545 nm using a spectrophotometer (Genesys 20, thermo Scientific). Absorption of the solution was 0.065.
10 mg of riboflavin powder was dissolved in 1000 ml water for 15 min. Absorption of the solution was measured at 545 nm using a spectrophotometer (Genesys 20, thermo Scientific). Absorption of the solution was 0.386.
80 g granulated Riboflavin was coated with 60 g Eudragit FS30D and 10 g PIasACRYL T20 using a WFP-mini fluid bed processor (DMR) in Wurster configuration. 71 g coated product with particle size between 250 and 1000 μm was obtained. Coating material was ca. 20% of the particle mass, riboflavin content was 60%. 16.6 mg of coated powder (containing 10 mg of Riboflavin) was dissolved in 1000 ml water for 15 min. Absorption of the solution was measured at 545 nm using a spectrophotometer (Genesys 20, thermo Scientific). Absorption of the solution was 0.087.

Cc1cc2nc3c(=O)[nH]c(=O)nc-3n(C[C@H](O)[C@H](O)[C@H](O)CO)c2cc1C [Comparison Example 2, riboflavin]
Absorption of the solution: 0.386
